Reference: patent US10913751B2, “1,3-diazo-4-oxa-[3.3.1]-bicyclic derivatives, process for their manufacture and their use as a medicament, in particular for treating diabetes” (UNIVERSITA' DI PISA, priority 2017, dated 2021)

What was measured:
GLP-1 receptor = assay: ELISA assay of secreted GLP-1 forms (mSTC-1 GLP-1 sec CRC); type: cell-based; settings: mSTC-1 cells, GLP-1 secretion, concentration-response curve, ELISA readout, FIG. 1; read-out: action as a GLP-1 receptor agonist (mSTC-1 GLP-1 sec CRC)
Procedure: The biological activity of the synthesised compounds was measured with an ELISA assay.
The biological activity of the compound (5S*,9R*)-9-phenyl-3-phenylacetyl-4-oxa-1,3-diazabicyclo[3.3.1]non-6-ene (Ib) as a GLP-1 receptor agonist was measured via an ELISA assay specifically modified in order to identify the forms of GLP-1 secreted.

| Structure (SMILES) | melting point [°C] | EC50 (GLP-1 receptor) [µM] |
| --- | --- | --- |
| O=C(Cc1ccccc1)N1CN2CC=C[C@H](O1)[C@H]2c1ccccc1 (relative stereo) [Ib, (5S*,9R*)-9-phenyl-3-phenylacetyl-4-oxa-1,3-diazabicyclo[3.3.1]non-6-ene] | 156 to 159 | 11 |
| CC[C@@H]1[C@@H]2C=CCN1CN(C(=O)Cc1ccccc1)O2 (relative stereo) [If, (5S*,9R*)-9-ethyl-3-phenylacetyl-4-oxa-1,3-diazabicyclo[3.3.1]non-6-ene] | 68 to 70 | – |
